Results reported in ChEMBL document CHEMBL2331094 (Bioorg Med Chem Lett, 2013).

target: T1, Lysophosphatidic acid receptor 2 (Homo sapiens, UniProt Q9HBW0); test: Intrinsic activity at human LPA2 receptor transfected in HEK293 cells after 1 hr by TGFalpha shedding assay relative to LPA; format: cell-based
T1 sequence (Q9HBW0 whole entry): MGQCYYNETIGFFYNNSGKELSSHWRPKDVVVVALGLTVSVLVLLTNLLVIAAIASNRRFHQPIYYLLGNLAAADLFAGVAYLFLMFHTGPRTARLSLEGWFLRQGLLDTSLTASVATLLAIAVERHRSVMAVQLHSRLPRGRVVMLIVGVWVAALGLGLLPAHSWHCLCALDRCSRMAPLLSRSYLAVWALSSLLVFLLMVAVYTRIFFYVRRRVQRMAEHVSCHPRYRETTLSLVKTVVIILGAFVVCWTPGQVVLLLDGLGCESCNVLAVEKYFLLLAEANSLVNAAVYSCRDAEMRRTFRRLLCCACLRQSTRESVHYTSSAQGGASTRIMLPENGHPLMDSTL

SMILES | Intrinsic activity
CCCCCCCCCCCCCCCCCC(=O)OC(COC)COP(O)(O)=S (racemic) | 0.165
CCCCCCCCCCCCCCCCCC(=O)OC[C@H](COP(O)(O)=S)OC | 0.178
CCCCCCCCCCCCCCCCOC(COC)COP(O)(O)=S (stereo not given) | 0.046
CCCCCCCCCCCCCCCCCCOC[C@H](COP(O)(O)=S)OC | 0.088
CCCCCCCCCCCCCCCCCCOCC(COP(O)(O)=S)OC (racemic) | 0.26

target: T2, Lysophosphatidic acid receptor 4 (Homo sapiens, UniProt Q99677); test: Intrinsic activity at human LPA4 receptor transfected in HEK293 cells after 1 hr by TGFalpha shedding assay in presence of Ki16425 relative to LPA; format: cell-based
T2 sequence (Q99677 whole entry): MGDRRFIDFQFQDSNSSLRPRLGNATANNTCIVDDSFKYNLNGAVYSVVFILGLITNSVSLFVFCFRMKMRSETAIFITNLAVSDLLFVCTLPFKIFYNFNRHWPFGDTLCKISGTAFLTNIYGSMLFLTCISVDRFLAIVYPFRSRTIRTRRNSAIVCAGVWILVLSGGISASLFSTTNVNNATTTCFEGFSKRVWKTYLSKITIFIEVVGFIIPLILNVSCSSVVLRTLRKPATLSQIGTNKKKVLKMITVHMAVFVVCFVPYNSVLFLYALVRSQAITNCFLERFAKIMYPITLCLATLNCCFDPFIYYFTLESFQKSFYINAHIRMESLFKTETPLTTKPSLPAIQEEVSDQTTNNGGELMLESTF

SMILES | Intrinsic activity
CCCCCCCCCCCCCCCCCC(=O)OC(COC)COP(O)(O)=S (racemic) | 3.9
CCCCCCCCCCCCCCCCCC(=O)OC[C@H](COP(O)(O)=S)OC | 1.6
CCCCCCCCCCCCCCCCOC(COC)COP(O)(O)=S (stereo not given) | 2.1
CCCCCCCCCCCCCCCCCCOC[C@H](COP(O)(O)=S)OC | 2.1
CCCCCCCCCCCCCCCCCCOCC(COP(O)(O)=S)OC (racemic) | 2.2

target: T3, Lysophosphatidic acid receptor 3 (Homo sapiens, UniProt Q9UBY5); test: Agonist activity at human LPA3 receptor transfected in HEK293 cells after 1 hr by TGFalpha shedding assay; format: cell-based
T3 sequence (Q9UBY5 whole entry): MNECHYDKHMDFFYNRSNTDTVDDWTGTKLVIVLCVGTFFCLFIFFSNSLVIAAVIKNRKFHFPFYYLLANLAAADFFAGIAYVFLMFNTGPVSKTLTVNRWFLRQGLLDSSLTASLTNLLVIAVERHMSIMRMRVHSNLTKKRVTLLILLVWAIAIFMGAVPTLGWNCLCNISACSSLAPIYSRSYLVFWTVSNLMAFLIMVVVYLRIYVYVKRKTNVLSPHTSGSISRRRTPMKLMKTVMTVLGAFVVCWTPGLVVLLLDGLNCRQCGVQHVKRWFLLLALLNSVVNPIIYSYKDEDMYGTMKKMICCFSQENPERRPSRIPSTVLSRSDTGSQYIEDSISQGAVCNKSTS

SMILES | EC50 [nM]
CCCCCCCCCCCCCCCCCC(=O)OC(COC)COP(O)(O)=S (racemic) | 0.21
CCCCCCCCCCCCCCCCCC(=O)OC[C@H](COP(O)(O)=S)OC | 0.44
CCCCCCCCCCCCCCCCOC(COC)COP(O)(O)=S (stereo not given) | 0.36
CCCCCCCCCCCCCCCCCCOC[C@H](COP(O)(O)=S)OC | 1.08
CCCCCCCCCCCCCCCCCCOCC(COP(O)(O)=S)OC (racemic) | 0.23

target: T4, Lysophosphatidic acid receptor 6 (Homo sapiens, UniProt P43657); test: Agonist activity at human LPA6 receptor transfected in HEK293 cells after 1 hr by TGFalpha shedding assay in presence of Ki16425; format: cell-based
T4 sequence (P43657 whole entry): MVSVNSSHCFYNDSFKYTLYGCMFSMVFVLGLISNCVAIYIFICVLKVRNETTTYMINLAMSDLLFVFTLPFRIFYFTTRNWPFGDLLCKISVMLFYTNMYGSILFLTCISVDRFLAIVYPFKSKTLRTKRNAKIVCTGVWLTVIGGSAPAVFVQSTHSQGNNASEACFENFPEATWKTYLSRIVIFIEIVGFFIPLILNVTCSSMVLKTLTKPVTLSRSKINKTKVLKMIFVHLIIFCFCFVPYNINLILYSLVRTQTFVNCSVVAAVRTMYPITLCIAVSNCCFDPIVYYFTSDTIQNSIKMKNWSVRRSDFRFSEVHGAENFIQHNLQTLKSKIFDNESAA

SMILES | EC50 [nM]
CCCCCCCCCCCCCCCCCC(=O)OC(COC)COP(O)(O)=S (racemic) | 76
CCCCCCCCCCCCCCCCCC(=O)OC[C@H](COP(O)(O)=S)OC | 58
CCCCCCCCCCCCCCCCOC(COC)COP(O)(O)=S (stereo not given) | 66
CCCCCCCCCCCCCCCCCCOC[C@H](COP(O)(O)=S)OC | 105
CCCCCCCCCCCCCCCCCCOCC(COP(O)(O)=S)OC (racemic) | 39

target: T2, Lysophosphatidic acid receptor 4; test: Agonist activity at human LPA4 receptor transfected in HEK293 cells after 1 hr by TGFalpha shedding assay in presence of Ki16425; format: cell-based

SMILES | EC50 [nM]
CCCCCCCCCCCCCCCCCC(=O)OC(COC)COP(O)(O)=S (racemic) | 2.4
CCCCCCCCCCCCCCCCCC(=O)OC[C@H](COP(O)(O)=S)OC | 4.9
CCCCCCCCCCCCCCCCOC(COC)COP(O)(O)=S (stereo not given) | 3.8
CCCCCCCCCCCCCCCCCCOC[C@H](COP(O)(O)=S)OC | 4.9
CCCCCCCCCCCCCCCCCCOCC(COP(O)(O)=S)OC (racemic) | 3.8

target: T5, Lysophosphatidic acid receptor 6 (Homo sapiens) (UniProt P43657); test: Intrinsic activity at human LPA6 receptor transfected in HEK293 cells after 1 hr by TGFalpha shedding assay in presence of Ki16425 relative to LPA; format: cell-based
T5 sequence (whole entry): T4 sequence (P43657 whole entry)

SMILES | Intrinsic activity
CCCCCCCCCCCCCCCCCC(=O)OC(COC)COP(O)(O)=S (racemic) | 14.3
CCCCCCCCCCCCCCCCCC(=O)OC[C@H](COP(O)(O)=S)OC | 19.3
CCCCCCCCCCCCCCCCOC(COC)COP(O)(O)=S (stereo not given) | 10.9
CCCCCCCCCCCCCCCCCCOC[C@H](COP(O)(O)=S)OC | 10.9
CCCCCCCCCCCCCCCCCCOCC(COP(O)(O)=S)OC (racemic) | 27

target: T6, Lysophosphatidic acid receptor 3 (Homo sapiens) (UniProt Q9UBY5); test: Intrinsic activity at human LPA3 receptor transfected in HEK293 cells after 1 hr by TGFalpha shedding assay relative to LPA; format: cell-based
T6 sequence (whole entry): T3 sequence (Q9UBY5 whole entry)

SMILES | Intrinsic activity
CCCCCCCCCCCCCCCCCC(=O)OC(COC)COP(O)(O)=S (racemic) | 600
CCCCCCCCCCCCCCCCCC(=O)OC[C@H](COP(O)(O)=S)OC | 260
CCCCCCCCCCCCCCCCOC(COC)COP(O)(O)=S (stereo not given) | 300
CCCCCCCCCCCCCCCCCCOC[C@H](COP(O)(O)=S)OC | 140
CCCCCCCCCCCCCCCCCCOCC(COP(O)(O)=S)OC (racemic) | 570

target: T7, Lysophosphatidic acid receptor 5 (Homo sapiens, UniProt Q9H1C0); test: Agonist activity at human LPA5 receptor transfected in HEK293 cells after 1 hr by TGFalpha shedding assay in presence of Ki16425; format: cell-based
T7 sequence (Q9H1C0 whole entry): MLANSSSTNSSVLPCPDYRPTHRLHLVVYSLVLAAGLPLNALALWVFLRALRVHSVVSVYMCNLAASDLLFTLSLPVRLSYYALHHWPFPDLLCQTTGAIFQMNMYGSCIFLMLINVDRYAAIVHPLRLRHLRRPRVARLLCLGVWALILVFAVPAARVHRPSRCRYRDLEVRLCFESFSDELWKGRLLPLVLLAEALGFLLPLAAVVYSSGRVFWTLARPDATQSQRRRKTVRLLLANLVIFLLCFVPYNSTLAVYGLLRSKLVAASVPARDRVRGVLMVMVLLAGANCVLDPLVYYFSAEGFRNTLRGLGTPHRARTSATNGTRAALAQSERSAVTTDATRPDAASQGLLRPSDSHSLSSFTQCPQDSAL

SMILES | EC50 [nM]
CCCCCCCCCCCCCCCCCC(=O)OC(COC)COP(O)(O)=S (racemic) | 1.81
CCCCCCCCCCCCCCCCCC(=O)OC[C@H](COP(O)(O)=S)OC | 8.2
CCCCCCCCCCCCCCCCOC(COC)COP(O)(O)=S (stereo not given) | 0.26
CCCCCCCCCCCCCCCCCCOC[C@H](COP(O)(O)=S)OC | 6.1
CCCCCCCCCCCCCCCCCCOCC(COP(O)(O)=S)OC (racemic) | 0.83

target: T1, Lysophosphatidic acid receptor 2; test: Agonist activity at human LPA2 receptor transfected in HEK293 cells after 1 hr by TGFalpha shedding assay; format: cell-based

SMILES | EC50 [nM]
CCCCCCCCCCCCCCCCCC(=O)OC(COC)COP(O)(O)=S (racemic) | 146
CCCCCCCCCCCCCCCCCC(=O)OC[C@H](COP(O)(O)=S)OC | 149
CCCCCCCCCCCCCCCCOC(COC)COP(O)(O)=S (stereo not given) | 116
CCCCCCCCCCCCCCCCCCOC[C@H](COP(O)(O)=S)OC | 350
CCCCCCCCCCCCCCCCCCOCC(COP(O)(O)=S)OC (racemic) | 100

target: T7, Lysophosphatidic acid receptor 5; test: Intrinsic activity at human LPA5 receptor transfected in HEK293 cells after 1 hr by TGFalpha shedding assay in presence of Ki16425 relative to LPA; format: cell-based

SMILES | Intrinsic activity
CCCCCCCCCCCCCCCCCC(=O)OC(COC)COP(O)(O)=S (racemic) | 41
CCCCCCCCCCCCCCCCCC(=O)OC[C@H](COP(O)(O)=S)OC | 8.4
CCCCCCCCCCCCCCCCOC(COC)COP(O)(O)=S (stereo not given) | 300
CCCCCCCCCCCCCCCCCCOC[C@H](COP(O)(O)=S)OC | 16
CCCCCCCCCCCCCCCCCCOCC(COP(O)(O)=S)OC (racemic) | 114

target: T8, Lysophosphatidic acid receptor 1 (Homo sapiens, UniProt Q92633); test: Intrinsic activity at human LPA1 receptor transfected in HEK293 cells after 1 hr by TGFalpha shedding assay relative to LPA; format: cell-based
T8 sequence (Q92633 whole entry): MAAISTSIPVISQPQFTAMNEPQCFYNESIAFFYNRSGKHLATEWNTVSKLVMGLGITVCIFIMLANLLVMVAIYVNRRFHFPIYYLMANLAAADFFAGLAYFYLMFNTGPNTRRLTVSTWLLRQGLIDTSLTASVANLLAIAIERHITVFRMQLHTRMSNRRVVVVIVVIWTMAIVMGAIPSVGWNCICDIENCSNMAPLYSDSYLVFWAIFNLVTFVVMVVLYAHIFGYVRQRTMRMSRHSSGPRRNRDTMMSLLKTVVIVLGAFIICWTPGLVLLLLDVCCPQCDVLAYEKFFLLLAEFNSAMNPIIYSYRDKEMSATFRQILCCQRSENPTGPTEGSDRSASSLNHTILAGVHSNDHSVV

SMILES | Intrinsic activity
CCCCCCCCCCCCCCCCCC(=O)OC(COC)COP(O)(O)=S (racemic) | 1.15
CCCCCCCCCCCCCCCCCC(=O)OC[C@H](COP(O)(O)=S)OC | 0.61
CCCCCCCCCCCCCCCCOC(COC)COP(O)(O)=S (stereo not given) | 0.38
CCCCCCCCCCCCCCCCCCOC[C@H](COP(O)(O)=S)OC | 0.57
CCCCCCCCCCCCCCCCCCOCC(COP(O)(O)=S)OC (racemic) | 1.63

target: T8, Lysophosphatidic acid receptor 1; test: Agonist activity at human LPA1 receptor transfected in HEK293 cells after 1 hr by TGFalpha shedding assay; format: cell-based

SMILES | EC50 [nM]
CCCCCCCCCCCCCCCCCC(=O)OC(COC)COP(O)(O)=S (racemic) | 12.2
CCCCCCCCCCCCCCCCCC(=O)OC[C@H](COP(O)(O)=S)OC | 24
CCCCCCCCCCCCCCCCOC(COC)COP(O)(O)=S (stereo not given) | 26
CCCCCCCCCCCCCCCCCCOC[C@H](COP(O)(O)=S)OC | 31
CCCCCCCCCCCCCCCCCCOCC(COP(O)(O)=S)OC (racemic) | 8.4
